Values after ≈ are worked out from the molar mass of the structure shown.
Experiments:
Format in all cases: cell-based
[1] = tested on: STAPHYLOCOCCUS AUREUS CMX 642A; test: In vitro antibacterial activity, MIC, BHI agar dilution; details: S. aureus CMX 642A, unit assumed
[2] = tested on: ACINETOBACTER CALCOACETICUS CMX 669; test: as above; details: A. calcoaceticus CMX 669, unit assumed
[3] = tested on: PSEUDOMONAS AERUGINOSA DPHD-2862; test: as above; details: P. aeruginosa DPHD-2862, unit assumed
M[…] ATCC 4698 = test: as above; details: M. luteus ATCC 4698, unit assumed
In short: (§1)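 MIC was read visually as the lowest drug level with no growth, a slight haze or sparsely isolated colonies relative to a compound-free growth control. Organisms were spotted at 1:100 dilution (1:10 for slow-growing strains) onto Brain Heart Infusion agar containing serial compound dilutions and incubated 20 to 24 hours at 35-37° C.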

STR[…] 508 = test: as above; details: S. agalactiae CMX 508, unit assumed
In short: as §1

EN[…] ATCC 8043 = test: as above; details: E. faecium ATCC 8043, unit assumed
In short: as §1

M[…] ATCC 9341 = test: as above; details: M. luteus ATCC 9341, unit assumed
In short: as §1

[4] = tested on: STAPHYLOCOCCUS AUREUS CMX 553; test: as above; details: S. aureus CMX 553, unit assumed
[5] = tested on: PSEUDOMONAS AERUGINOSA BMH10; test: as above; details: P. aeruginosa BMH10, unit assumed
[6] = tested on: STREPTOCOCCUS BOVIS A-5169; test: as above; details: S. bovis A-5169, unit assumed
[7] = tested on: STAPHYLOCOCCUS EPIDERMIDIS 3519; details: S. epidermidis 3519; BHI agar; unit assumed
[8] = tested on: STAPHYLOCOCCUS AUREUS 1775; test: In vitro antibacterial activity, MIC, BHI agar dilution; details: S. aureus 1775, unit assumed
ESCHERICHIA COLI JUHL = details: E. coli JUHL; BHI agar; unit assumed
ESCHERICHIA COLI KNK 437 = details: E. coli KNK 437; BHI agar; unit assumed
[9] = tested on: PSEUDOMONAS AERUGINOSA K799/61; test: In vitro antibacterial activity, MIC, BHI agar dilution; details: P. aeruginosa K799/61, unit assumed
[10] = tested on: STAPHYLOCOCCUS AUREUS A-5278; test: as above; details: S. aureus A-5278, unit assumed
[11] = tested on: PSEUDOMONAS AERUGINOSA 5007; test: as above; details: P. aeruginosa 5007, unit assumed
[12] = tested on: STREPTOCOCCUS PYOGENES 930; test: as above; details: S. pyogenes 930, unit assumed
[13] = tested on: ENTEROBACTER AEROGENES ATCC 13048; test: as above; details: E. aerogenes ATCC 13048, unit assumed
[14] = tested on: STAPHYLOCOCCUS AUREUS NCTC10649M; test: as above; details: S. aureus NCTC10649M, unit assumed
[15] = tested on: STAPHYLOCOCCUS AUREUS A5177; test: as above; details: S. aureus A5177, unit assumed
[16] = tested on: PSEUDOMONAS AERUGINOSA K799/WT; test: as above; details: P. aeruginosa K799/WT, unit assumed
[17] = tested on: STREPTOCOCCUS PYOGENES PIU 2548; test: as above; details: S. pyogenes PIU 2548, unit assumed
[18] = tested on: STREPTOCOCCUS PYOGENES EES61; test: as above; details: S. pyogenes EES61, unit assumed
[19] = tested on: PROVIDENCIA STUARTII CMX 640; details: P. stuartii CMX 640; BHI agar; unit assumed
ESCHERICHIA COLI H560 = test: In vitro antibacterial activity, MIC, BHI agar dilution; details: E. coli H560, unit assumed
[20] = tested on: MYCOBACTERIUM SMEGMATIS ATCC 114; test: as above; details: M. smegmatis ATCC 114, unit assumed
[21] = tested on: STAPHYLOCOCCUS AUREUS ATCC 6538P; test: as above; details: S. aureus ATCC 6538P, 35-37° C., 20 to 24 hours, unit assumed
CANDIDA ALBICANS CCH 442 = test: as above; details: C. albicans CCH 442, unit assumed
ESCHERICHIA COLI DC-2 = test: as above; details: E. coli DC-2, unit assumed
ESCHERICHIA COLI SS = test: as above; details: E. coli SS, unit assumed
PSEUDOMONAS CEPACIA 296I = test: as above; details: P. cepacia 296I, unit assumed
[22] = tested on: KLEBSIELLA PNEUMONIAE ATCC 8045; test: as above; details: K. pneumoniae ATCC 8045, unit assumed
[23] = tested on: PSEUDOMONAS AERUGINOSA DPHD-5263; test: as above; details: P. aeruginosa DPHD-5263, unit assumed

CC[C@H]1OC(=O)[C@H](C)C(=O)[C@H](C)[C@@H](O[C@@H]2O[C@H](C)C[C@H](N(C)C)[C@H]2O)[C@](C)(OC)C[C@@H](C)C2=N[C@H](CN(C)Cc3ccccc3)CN3C(=O)O[C@@]1(C)[C@H]3[C@H]2C [Example 58]
MIC [1]: 0.78 µg/mL (≈ 1.01 µM) | MIC [2]: > 100 µg/mL | MIC [3]: > 100 µg/mL | MIC (M[…] ATCC 4698): 0.39 µg/mL (≈ 0.506 µM) | MIC (STR[…] 508): 0.02 µg/mL (≈ 0.0259 µM) | MIC (EN[…] ATCC 8043): 0.2 µg/mL (≈ 0.259 µM) | MIC (M[…] ATCC 9341): 0.1 µg/mL (≈ 0.13 µM) | MIC [4]: 0.78 µg/mL (≈ 1.01 µM) | MIC [5]: > 100 µg/mL | MIC [6]: 0.01 µg/mL (≈ 0.013 µM) | MIC [7]: 0.78 µg/mL (≈ 1.01 µM) | MIC [8]: > 100 µg/mL | MIC (ESCHERICHIA COLI JUHL): > 100 µg/mL | MIC (ESCHERICHIA COLI KNK 437): > 100 µg/mL | MIC [9]: 3.1 µg/mL (≈ 4.02 µM) | MIC [10]: > 100 µg/mL | MIC [11]: > 100 µg/mL | MIC [12]: > 100 µg/mL | MIC [13]: > 100 µg/mL | MIC [14]: 0.78 µg/mL (≈ 1.01 µM) | MIC [15]: 0.78 µg/mL (≈ 1.01 µM) | MIC [16]: > 100 µg/mL | MIC [17]: 0.39 µg/mL (≈ 0.506 µM) | MIC [18]: 0.01 µg/mL (≈ 0.013 µM) | MIC [19]: > 100 µg/mL | MIC (ESCHERICHIA COLI H560): 50 µg/mL (≈ 64.9 µM) | MIC [20]: 3.1 µg/mL (≈ 4.02 µM) | MIC [21]: 0.78 µg/mL (≈ 1.01 µM) | MIC (CANDIDA ALBICANS CCH 442): > 100 µg/mL | MIC (ESCHERICHIA COLI DC-2): > 100 µg/mL | MIC (ESCHERICHIA COLI SS): 0.39 µg/mL (≈ 0.506 µM) | MIC (PSEUDOMONAS CEPACIA 296I): > 100 µg/mL | MIC [22]: > 100 µg/mL | MIC [23]: > 100 µg/mL

CC[C@H]1OC(=O)[C@H](C)C(=O)[C@H](C)[C@@H](O[C@@H]2O[C@H](C)C[C@H](N(C)C)[C@H]2O)[C@](C)(OC)C[C@@H](C)C2=NC[C@@H](COCc3ccccc3)N3C(=O)O[C@@]1(C)[C@H]3[C@H]2C [Example 37]
MIC [1]: 0.1 µg/mL (≈ 0.132 µM) | MIC [2]: 25 µg/mL (≈ 33 µM) | MIC [3]: > 100 µg/mL | MIC (M[…] ATCC 4698): 0.2 µg/mL (≈ 0.264 µM) | MIC (STR[…] 508): 0.02 µg/mL (≈ 0.0264 µM) | MIC (EN[…] ATCC 8043): 0.05 µg/mL (≈ 0.066 µM) | MIC (M[…] ATCC 9341): 0.01 µg/mL (≈ 0.0132 µM) | MIC [4]: 0.1 µg/mL (≈ 0.132 µM) | MIC [5]: 50 µg/mL (≈ 66 µM) | MIC [6]: ≤ 0.005 µg/mL | MIC [7]: 0.1 µg/mL (≈ 0.132 µM) | MIC [8]: > 100 µg/mL | MIC (ESCHERICHIA COLI JUHL): 50 µg/mL (≈ 66 µM) | MIC (ESCHERICHIA COLI KNK 437): 25 µg/mL (≈ 33 µM) | MIC [9]: 0.78 µg/mL (≈ 1.03 µM) | MIC [10]: > 100 µg/mL | MIC [11]: > 100 µg/mL | MIC [12]: 100 µg/mL (≈ 132 µM) | MIC [13]: 50 µg/mL (≈ 66 µM) | MIC [14]: 0.1 µg/mL (≈ 0.132 µM) | MIC [15]: 0.1 µg/mL (≈ 0.132 µM) | MIC [16]: > 100 µg/mL | MIC [17]: 0.39 µg/mL (≈ 0.515 µM) | MIC [18]: ≤ 0.005 µg/mL | MIC [19]: > 100 µg/mL | MIC (ESCHERICHIA COLI H560): 25 µg/mL (≈ 33 µM) | MIC [20]: 0.39 µg/mL (≈ 0.515 µM) | MIC [21]: 0.1 µg/mL (≈ 0.132 µM) | MIC (CANDIDA ALBICANS CCH 442): > 100 µg/mL | MIC (ESCHERICHIA COLI DC-2): 25 µg/mL (≈ 33 µM) | MIC (ESCHERICHIA COLI SS): 0.39 µg/mL (≈ 0.515 µM) | MIC (PSEUDOMONAS CEPACIA 296I): 100 µg/mL (≈ 132 µM) | MIC [22]: 50 µg/mL (≈ 66 µM) | MIC [23]: > 100 µg/mL

From patent US6274715A, “Tricyclic erythromycin derivatives” (priority 1997, dated 2001)
